What follows are compounds tested on HBV (2.2.15 cells) (assay: Antiviral activity in 2.2.15 cells: reduction of viral product accumulation (qPCR of lysates, HBsAg or HBeAg ELISA)). Conditions: Hepatitis B virus, 120 h, day 5 post treatment, 50% reduction of viral product accumulation in lysates or supernatants vs no drug controls, readout (qPCR, HBsAg, HBeAg) not specified.
Assay type: cell-based, hepatitis B virus (HBV)
Method: 2.2.15 cells are passaged upon attaining confluency in DMEM/F12 media in the presence of 10% FBS, Penn/Strep, and 250 ug/mL G418. Novel compounds are 5 fold serially diluted in DMSO and added to 96 well plates containing 35,000 cells/well at a 1:200 dilution so that the final concentration of DMSO is 0.5%. On day 5, post treatment cell lysates and supernatants are harvested for analysis.
Cells are lysed using Agilent Sidestep Lysis buffer, diluted 1:100 and quantified via quantitative real time PCR. Commercially available ELISA kits are used to quantitate the viral proteins HBsAg (Alpco) or HBeAg (US Biological) by following the manufacturer's recommended protocol after diluting samples to match the linear range of their respective assays. Irrespective of readout, compound concentrations that reduce viral product accumulation in the cell lysates or supernatants by 50% relative to no drug controls (EC50) are reported; EC50 ranges are as follows: A<0.1 μM; B 0.1-1 μM; C>1 μM.

Compound | EC50 [nM]
COCCCOc1cc2c(cc1-c1cn(C)nc1C)-c1cc(=O)c(C(=O)O)cn1[C@H](C(C)(C)C)C2 [Example 32, (S)-6-(tert-butyl)-10-(1,3-dimethyl-1H-pyrazol-4-yl)-9-(3-methoxypropoxy)-2-oxo-6,7-dihydro-2H-pyrido[2,1-a]isoquinoline-3-carboxylic Acid] | < 100
COCCCOc1cc2c(cc1-c1cnn(C)c1)-c1cc(=O)c(C(=O)O)cn1[C@H]1[C@@H]2COC1(C)C [Example 123, (3aS,12bR)-11-(3-methoxypropoxy)-3,3-dimethyl-10-(1-methyl-1H-pyrazol-4-yl)-7-oxo-3,3a,7,12b-tetrahydro-1H-furo[3,4-c]pyrido[2,1-a]isoquinoline-6-carboxylic Acid] | < 100
COCCCOc1cc2c(cc1N1CCC1)-c1cc(=O)c(C(=O)O)cn1[C@H](C(C)(C)C)C2 [Example 55, (S)-10-(azetidin-1-yl)-6-(tert-butyl)-9-(3-methoxypropoxy)-2-oxo-6,7-dihydro-2H-pyrido[2,1-a]isoquinoline-3-carboxylic Acid] | < 100
CC1(C)Cc2c3c(cc(-c4cn[nH]c4)c2O1)-c1cc(=O)c(C(=O)O)cn1[C@H](C(C)(C)C)C3 [Example 147, (S)-5-(tert-butyl)-2,2-dimethyl-9-oxo-12-(1H-pyrazol-4-yl)-2,3,4,9-tetrahydro-5H-furo[3,2-f]pyrido[2,1-a]isoquinoline-8-carboxylic Acid] | > 1000
CC(C)[C@@H]1Cc2c(cc(-c3ccccc3Cl)c3c2CCO3)-c2cc(=O)c(C(=O)O)cn21 [Example 113] | > 1000
Cn1cc(-c2cc3c(c4c2OC(C)(C)C4)C[C@@H](C(C)(C)C)n2cc(C(=O)O)c(=O)cc2-3)cn1 [Example 151, (S)-5-(tert-butyl)-2,2-dimethyl-12-(1-methyl-1H-pyrazol-4-yl)-9-oxo-2,3,4,9-tetrahydro-5H-furo[3,2-f]pyrido[2,1-a]isoquinoline-8-carboxylic Acid] | > 1000
COCCCOc1cc2c(cc1-c1nnnn1C)-c1cc(=O)c(C(=O)O)cn1[C@H](C(C)(C)C)C2 [Example 35, (S)-6-(tert-butyl)-9-(3-methoxypropoxy)-10-(1-methyl-1H-tetrazol-5-yl)-2-oxo-6,7-dihydro-2H-pyrido[2,1-a]isoquinoline-3-carboxylic Acid] | < 100
COCCCOc1cc2c(cc1-c1cccc(OC)c1)-c1cc(=O)c(C(=O)O)cn1[C@H]1[C@@H]2COC1(C)C [Example 140, (3aS,12bR)-10-(3-methoxyphenyl)-11-(3-methoxypropoxy)-3,3-dimethyl-7-oxo-3,3a,7,12b-tetrahydro-1H-furo[3,4-c]pyrido[2,1-a]isoquinoline-6-carboxylic Acid] | < 100
CC(C)(C)[C@@H]1Cc2c(cc(-c3ccco3)c3c2CCO3)-c2cc(=O)c(C(=O)O)cn21 [Example 72, (S)-5-(tert-butyl)-12-(furan-2-yl)-9-oxo-2,3,4,9-tetrahydro-5H-furo[3,2-f]pyrido[2,1-a]isoquinoline-8-carboxylic Acid] | < 100
CC(C)(C)[C@@H]1Cc2c(cc(-c3cnsc3)c3c2CCO3)-c2cc(=O)c(C(=O)O)cn21 [Example 73, (S)-5-(tert-butyl)-12-(isothiazol-4-yl)-9-oxo-2,3,4,9-tetrahydro-5H-furo[3,2-f]pyrido[2,1-a]isoquinoline-8-carboxylic Acid] | < 100
CC(C)[C@@H]1Cc2c(cc(-c3ccoc3)c3c2CCO3)-c2cc(=O)c(C(=O)O)cn21 [Example 90, (S)-12-(furan-3-yl)-5-isopropyl-9-oxo-2,3,4,9-tetrahydro-5H-furo[3,2-f]pyrido[2,1-a]isoquinoline-8-carboxylic Acid] | < 100
COCCCOc1cc2c(cc1-c1cc(OC)nnc1OC)-c1cc(=O)c(C(=O)O)cn1[C@H](C(C)(C)C)C2 [Example 45, (S)-6-(tert-butyl)-10-(3,6-dimethoxypyridazin-4-yl)-9-(3-methoxypropoxy)-2-oxo-6,7-dihydro-2H-pyrido[2,1-a]isoquinoline-3-carboxylic Acid] | < 100

Source: patent publication US11058678B2 (Enanta Pharmaceuticals, Inc., priority 2018, dated 2021)
